Here are results for 13 compounds from patent US4795761A, “Contraceptive composition” (Euroceltique S.A., priority 1986, dated 1989).

Like-named read-outs stand apart in the source and are kept apart here.

Series [1] concerns human sperm. In words: Human sperm motility, transmembrane migration ratio (two-chamber membrane method). The conditions noted are these: for inhibition at 25000 µM: beta-blocker 25 mM alone; for inhibition at 100 µM: beta-blocker 0.1 mM alone. The class given is cell-based. Here is the method:
A simple method for measuring human sperm motility was developed as a modification to the method of C. […] The method used two chambers separated by a membrane and assessed the proportion of spermatozoa, from a small aliquot of semen, that moved across the membrane from the upper to the lower chamber.
The apparatus consisted of an upper and a lower chamber, the upper chamber being the plunger of a 2 ml disposable syringe. A 13 mm diameter Nuclepore membrane filter was bonded to the plunger using dichloromethane.
The mixture was pre-incubated at 37° C. for 10 minutes.
After pre-incubation the mixture was vortexed and 100 μl was pipetted onto the membrane of the upper chamber. The upper chamber was then inserted into the lower chamber, which contained 2 ml of phosphate buffered saline at 37° C.
The relative positions of the two chambers were fixed so that the fluid levels were equal.
The apparatus was then incubated for 90 mins. at 37° C. After this time, the upper chamber was removed and its contents were washed into 1.9 ml phosphate buffered saline containing 50 ul of 10% formalin solution by breaking the membrane. The spermatozoa in the lower chamber were also killed by adding 50 ul of the formalin to the lower chamber.
Finally, the number of spermatozoa in the upper and lower chambers were counted using a haemocytometer. The proportion of spermatozoa that traverse the membrane into the lower chamber is referred to as the transmembrane migration ratio.
Using the same technique, but a different sperm source the control of sperm motility achieved by nonoxynol-9, various beta-blockers and mixtures of nonoxynol-9 and a beta-blocker was measured. […] Again, mM represents millimolar.

The conditions of series [2]: cited from earlier work.
Where [3] appears, read: Homo sapiens, Sperm, Table 2, beta-blocker 1.0 mM alone, read-out: % Inhibition of Sperm Motility.
Setting [4] is: Homo sapiens, Sperm, Table 5, beta-blocker 1 mM alone, read-out: % Inhibition of Sperm Motility.
Where [5] appears, read: Homo sapiens, Sperm, Table 3, beta-blocker 1.0 mM alone, read-out: % Inhibition of Sperm Motility.

Consider `CC(C)NCC(O)COc1cccc2[nH]ccc12` (stereo not drawn) [Pindolol], for which the inhibition at 25000 µM in series [1] (Homo sapiens, Sperm, Table 3) came out at 10.2%.
As to Nonoxynol-9, the “% Inhibition of Sperm Motility” value was determined as 12.5% in series [1] (Table 1, Nonoxynol-9 0.16 mM alone, % of control); 97.7% in series [1] (Table 1, Nonoxynol-9 1.6 mM alone, % of control); 50% in series [1] (Table 2, different sperm source, Nonoxynol-9 at its IC50, alone); 50.0% in series [1] (Table 3, another sperm source, Nonoxynol-9 at its IC50, alone); 50.0% in series [1] (Table 4, another sperm source, Nonoxynol-9 at its IC50, alone).
For the compound `CC(C)NCC(O)COc1cccc2ccccc12` (racemic) [d,1-Propranolol], the inhibition at 1000 µM in series [1] (setting [3]) was 24.6%; in series [1] (setting [4]), 10.5%.
Turning to `CCc1cccc2cc(C(O)CNC(C)(C)C)oc12` (stereo not drawn) [Bufuralol], the inhibition at 1000 µM in series [1] (Homo sapiens, Sperm, read-out: % Inhibition of Sperm Motility, Table 2, beta-blocker 1.0 mM alone) was 28.5%; in series [1] (Homo sapiens, Sperm, read-out: % Inhibition of Sperm Motility, Table 3, beta-blocker 1.0 mM alone), 22%. Also, the “apparent octanol/buffer (pH 7.4) partition coefficient” value (“apparent octanol/buffer” for short) in series [2] is recorded as “greater than 1”.
`COCCc1ccc(OCC(O)CNC(C)C)cc1` (stereo not drawn) [Metoprolol]: the inhibition at 10000 µM worked out at 7.1% in series [1] (Homo sapiens, Sperm, Table 2, beta-blocker 10.0 mM alone) and 0% in series [1] (Homo sapiens, Sperm, Table 3, beta-blocker 10 mM alone).
As for `C=CCc1ccccc1OCC(O)CNC(C)C` (stereo not drawn) [alprenolol], the “apparent octanol/buffer” value in series [2] was “greater than 1”.
Consider `CC(C)(C)NC[C@H](O)COc1ccccc1C1CCCC1` [Penbutolol], for which the inhibition at 100 µM in series [1] (Homo sapiens, Sperm, Table 2) worked out at 6.2%; in series [1] (Homo sapiens, Sperm, Table 3), 0%; in series [1] (Homo sapiens, Sperm, Table 5), 17.8%. Also, in series [2], the “apparent octanol/buffer” value was “greater than 1”.
With `CC(C)(C)NC[C@H](O)COc1nsnc1N1CCOCC1` [Timolol], the inhibition at 25000 µM in series [1] (Homo sapiens, Sperm, Table 4) worked out at 4.9%.
For Octoxynol, the “% Inhibition of Sperm Motility” value in series [1] (Table 5, another sperm source, Octoxynol at its IC50, alone) was 50.0%.
Consider `CC(C)NC[C@@H](O)COc1cccc2ccccc12` [d-Propranolol], for which the inhibition at 1000 µM in series [1] (Homo sapiens, Sperm, Table 1, d-Propranolol 1.0 mM alone, % of control, read-out: % Inhibition of Sperm Motility) stood at 28%; in series [1] (setting [3]) it was 3.6%; in series [1] (setting [5]), 4%; in series [1] (setting [4]), 0.2%. The inhibition at 2500 µM in series [1] (Homo sapiens, Sperm, Table 1, d-Propranolol 2.5 mM alone, % of control) turned out to be 76.5%.
Consider `CCCC(=O)Nc1ccc(OCC(O)CNC(C)C)c(C(C)=O)c1` (stereo not drawn) [Acebutolol], for which, in series [1] (Homo sapiens, Sperm, Table 4), the inhibition at 25000 µM came out at 11.3%.
In the case of `C=CCc1ccccc1OC[C@@H](O)CNC(C)C` [1-Alprenolol], the inhibition at 1000 µM in series [1] (setting [3]) turned out to be 17%; in series [1] (setting [5]), 26.9%.
Take `C=CCOc1ccccc1OCC(O)CNC(C)C` (stereo not drawn) [Oxprenolol]: the inhibition at 5000 µM in series [1] (Homo sapiens, Sperm, Table 2, beta-blocker 5.0 mM alone) was determined as 3.4%; in series [1] (Homo sapiens, Sperm, Table 3, beta-blocker 5 mM alone), 0%.

As a reminder, the inhibition is the relative decrease from the control value, in per cent.
